Test results taken from the METLIN SMRT retention time set (Domingo-Almenara et al. 2019).

Assay: gradient 5% acetonitrile 3 min, to 50% in 2 min, to 85% in 15 min, held 3 min, 100 µL/min
Conditions: column: Zorbax Extend-C18 2.1 x 50 mm; eluents: water / acetonitrile, 0.1% formic acid
Procedure, shortened: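 Retention times of pure standards were taken from adduct peaks that were selected by computer and manually inspected. Over 3 months, mixtures of ~100 molecules were run by HPLC–quadrupole time-of-flight mass spectrometry in positive and negative ionization mode. The Zorbax Extend-C18 column (2.1 × 50 mm, 1.8 μm) ran at 100 μL/min in water and acetonitrile, each containing 0.1% formic acid, with 40 μL dead volume and 900 μL dwell volume.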

SMILES	RP-LC retention time [s]
CCOc1ccc(NC(=O)N2CCN(Cc3nc4ccccc4o3)CC2)cc1	681
CCOC(=O)c1c(NC(=O)CN2CCN(c3ccccn3)CC2)sc(C(N)=O)c1C	599
CCOC(=O)c1[nH]c(C)c(CCC(=O)N2CCC(C(=O)N3CCOCC3)CC2)c1C	646
Cc1ccc(C)c(OCC(O)Cn2c(C3CC3)nc3ccccc32)c1 (stereo not given)	731
Cc1ccc(C(C)C)c(OCC(=O)Nc2ccc(S(=O)(=O)Nc3cc(C)on3)cc2)c1	1000
O=C(Nc1cnc(-c2ccccc2)nc1)c1ccc(Br)o1	979
O=S(=O)(NC1CCCCC1)c1ccc(-c2nnc(C3CCC3)o2)o1	968
Cc1cc(NC(=O)CSc2[nH]c(=O)ncc2C)on1	567
CCOc1cc(N)c(Cl)cc1C(=O)NCC1CN(Cc2ccc(F)cc2)CCO1 (stereo not given)	714
Cc1nc2cc(N3CCC(C(=O)Nc4ccc5c(c4)OCCO5)CC3)cnc2nc1C	697
CC(C)CC(NC(=O)c1cccs1)C(=O)Nc1nc2ccccc2[nH]1 (stereo not given)	703
CC(C)C(=O)Nc1ccc(C2(C(=O)NCc3ccccn3)CCC2)cc1	611
O=C(Cc1ccsc1)N1CCCn2cc(-c3ccccc3F)nc21	784
CCc1nc2cc(N3CCC(C(=O)NCc4ccccc4)CC3)cnc2nc1CC	820
CCNC(=O)CCc1cc2cc(C)ccc2[nH]c1=O	638
O=C(NCc1ccc(Cl)cc1)C(=O)NCC1(c2cccs2)CCCC1	1120
Cc1cc(C)cc(Oc2nccn3c(=O)n(CC(=O)NC4CCCC4)nc23)c1	834
Nc1nc(N)c2cc(Sc3cccc(C(F)(F)F)c3)ccc2n1	686
Fc1ccc(CSc2ncnc3nc[nH]c23)cc1	719
CCCn1cc(C(=O)NCc2ccncc2)c2cccnc21	572

SMILES	RP-LC retention time [s]
Cc1ccc(CNC(=O)C2(C)CCCN(C(=O)NC(C)C)C2)cc1 (stereo not given)	766
COC(=O)c1ccc2c(=O)n(-c3ccc(Cl)cc3)c(N3CCOCC3)nc2c1	975
CN(C)S(=O)(=O)N1CCCC(c2nc(-c3cccnc3)no2)CCNC(=O)CC1 (stereo not given)	641
Cc1cc(C)n2c(Nc3ccc(Cl)cc3)c(-c3ccc(O)cc3)nc2n1	707
COc1ccc(NC(=O)Cn2cccc2-c2nnc(C3CCC3)o2)cc1	850
COc1ccc(CNC(=O)CN2CCc3[nH]c4c(OC)ccc(Cl)c4c(=O)c3C2)cc1	610
Cc1ccc(NC(=O)Nc2ccc3c(c2)CCN3S(=O)(=O)c2ccccc2)cc1F	1020
CCCN1C(=O)COc2ccc(-c3noc(-c4ccccc4)n3)cc21	1210
COc1ccccc1NC(=O)N1CCN(c2cnn3c(C)nnc3c2)CC1	605
Cc1ccc(NC(=O)N2CCc3[nH]cnc3C2c2ccncc2)c(Cl)c1 (stereo not given)	753
COC(=O)[C@H]1[C@H]2C[C@H]3c4[nH]c5cc(OC)ccc5c4CCN3C[C@H]2C[C@@H](OC(=O)c2cc(OC)c(OC)c(OC)c2)[C@@H]1OC	913
COc1ccc(CN2C=C(C(=O)OCc3noc(-c4ccc(OC)cc4)n3)C(C)=NS2(=O)=O)cc1	1110
CCNC(=O)N1CCCN(S(=O)(=O)CC)CC1	582
CC(=O)Nc1nc2ccc(CC(=O)Nc3cccc(Cl)c3)cc2s1	790
Cc1nc(C(=O)NCCCOC(C)C)c(C)n1C1CCN(C)CC1	547
COc1ccc(NC(=O)Cn2c(C)cc(-c3nnc(-c4ccccc4)o3)c2C)cc1	927
Cc1ccc(-c2nc3cccc(C)n3c2Nc2ccccc2C)cc1	797
COc1ccc(-c2cn3c(CC(=O)Nc4cc(C)on4)csc3n2)cc1OC	664
CC(O)(CNC(=O)NC1CCCCC1)c1ccc2c(c1)OCO2 (stereo not given)	709
Cn1nnnc1NCc1ccc(-c2cccc(Cl)c2)o1	826

Second part, the compound after the results:

RP-LC retention time [s]	SMILES
673	O=C(CN1CCCc2nc(C3CC3)ncc2C1=O)NC1CCCC1
918	O=C(Nc1nnc(-c2ccc3c(c2)CCCC3)o1)c1ccc([N+](=O)[O-])o1
762	Cc1ccc(C(=O)N2CCN(c3nnc4ccc(C(F)(F)F)cn34)CC2)s1
671	O=C(C1CCC1)N1CCC(c2nc(C3CCOCC3)no2)C1 (stereo not given)
729	Cc1ccc(CCNC(=O)c2nc(N3CCOCC3)c3ccccc3n2)cc1
780	CCOC(=O)c1cc2c([nH]c1=O)CC(c1ccc(C)cc1)CC2=O (stereo not given)
857	CCCC1(CO)CCCN1C(=O)c1nn(C)c2ccccc12 (stereo not given)
1100	O=S(=O)(c1ccc2nc(N3CCN(c4cccc(Cl)c4)CC3)ccc2c1)N1CCCC1
844	COc1cc(NC(=O)C2CCCN2S(=O)(=O)c2ccc3c(c2)CC(C)N3C(C)=O)cc(OC)c1 (stereo not given)
622	Cc1ccccc1-c1noc(Cn2ccnc2C)n1
730	CCC1Oc2ccc(S(=O)(=O)N3CCC(C(=O)N4CCCC4)CC3)cc2NC1=O (stereo not given)
834	O=C1CCCc2c1cc(C(=O)NCCc1ccco1)c(=O)n2-c1ccc(F)cc1
1330	c1ccc(OCc2nc(-c3ccc(-c4csc(C5CC5)n4)cc3)no2)cc1
775	O=C(Cc1ccccc1Cl)NC1CCN(c2cc(-c3ccc(F)cc3)[nH]n2)C1 (stereo not given)
902	CCCc1noc(-c2ccc(=O)n(CC(=O)Nc3cc(C)cc(C)c3)c2)n1
784	Cn1nc(-c2nnc(-c3ccccc3Cl)o2)c2c1CCN(C(=O)c1ccco1)C2
883	NC(=O)c1cc(-c2ccccc2)sc1NC(=O)c1ccc([N+](=O)[O-])o1
712	CSc1ccc(-c2nc3ccccn3c2Nc2ccc3c(c2)OCCO3)cc1
866	O=C(CN1C(=O)CSc2cccn2-c2ccccc21)NCc1ccc(F)cc1
589	CN1C(=O)NC2(CCN(S(=O)(=O)c3cccnc3)CC2)C1=O
648	CCCN(C)C(=O)CCC1CCN(c2cc(NC3CC3)ncn2)CC1
740	CC(C)CC(NC(=O)Cc1ccccc1F)C(=O)Nc1nc2ccccc2[nH]1 (stereo not given)
698	COCCCNC(=O)C1CCCN(C(=O)c2cccc(C(F)(F)F)c2)C1 (stereo not given)
994	O=C(CSC1CCCC1)N1CCCC(c2nnc(-c3ccccc3F)s2)C1 (stereo not given)
1060	CCc1cc2c(cc(C(=O)NCc3ccccc3)n2C)s1

RP-LC retention time [s]	SMILES
718	COCCN1CCC2(CC1)CN(Cc1cc(C)ccc1C)Cc1ccccc1O2
774	Cc1cc(C2CCCN2C(=O)Nc2cccc(C)c2C)no1 (stereo not given)
956	COc1ccccc1CCC(=O)NC1(c2nc(-c3cccnc3)no2)CCCCC1
581	O=C(Cc1cc(-c2ccco2)on1)NCc1ccccn1
1000	CCCn1cc(C(=O)NCCCOC)c(S(=O)(=O)N2CCN(c3ccc(Cl)cc3)CC2)n1
710	CC1(C(=O)NCc2ccccc2)CN(S(C)(=O)=O)CC(=O)N1c1cccc(F)c1 (stereo not given)
1260	COc1cc(Cl)c(NC(=O)C2CCCN(c3nccnc3Sc3ccc(C)cc3)C2)c(OC)c1 (stereo not given)
670	Cc1nnc2cc(N3CCN(S(=O)(=O)c4ccc(F)cc4)CC3)cnn12
805	CCc1ccc(CNC(=O)c2cn(-c3cc(-c4nc(C)no4)ccn3)cn2)cc1
660	NC(=O)C1CCN(C(=O)c2cn(-c3ccc(Cl)cc3)nn2)CC1
804	CC(C)c1ccc(C(C)NC(=O)C2CCN(Cc3cn(C)c4ccccc34)CC2)cc1 (stereo not given)
739	O=C(NCc1ccccc1)C1CCCN(c2nnc3ccc(Cl)cn23)C1 (stereo not given)
823	CC(C)CC(=O)Nc1cnc(N2CCCCCC2)nc1
944	C[C@H](NC(=O)Cc1cc(F)cc(F)c1)C(=O)N[C@H](C(=O)OC(C)(C)C)c1ccccc1
928	CCn1c(=O)c(N2CCN(C(=O)Nc3cccc(SC)c3)CC2)nc2ccccc21
946	Cc1ccc(Cn2nc(C(=O)N3CCCc4cc(C)ccc43)ccc2=O)cc1
610	O=C(NCCn1nc(-c2ccco2)ccc1=O)c1ccc2ncsc2c1
761	CCOc1ccccc1CNS(=O)(=O)c1ccc2c(c1)CCCC(=O)N2
1320	Cc1sc(C)c(S(=O)(=O)N2CCC(C)CC2)c1-c1cc(C(F)(F)F)on1
583	CCC(=O)NCc1nc2c(n1CC)CN(S(=O)(=O)c1ccc(C)c(C)c1)CC2
887	O=C(CCC1CCCC1)NCCC1CCN(C(=O)Nc2ccc(F)cc2)CC1
804	CCc1cccc(N2C(=O)CN(S(C)(=O)=O)CC2(C)C(=O)NCc2ccccc2)c1 (stereo not given)
723	CCN(CC)c1ccc(NC(=O)Cn2cnc3c(sc4nc(-c5ccccc5)ccc43)c2=O)c(C)c1
676	CN(C)c1ccc(NC(=O)Cn2nc3c(Oc4ccccc4Cl)nccn3c2=O)cc1
745	Cc1ccc(NC(=O)N2CCC3(C2)C(=O)Nc2ccccc23)cc1 (stereo not given)
